According to the supplement of paper PMC7017272:
± gives the standard deviation of the averaged measurements.

Experiments:
Conditions in all cases: treatment time: 3 days
UT-SCC-40 = assay: maximal % inhibition of viability relative to DMSO; higher = stronger effect
Protocol: (§1)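 HNSCC cell lines (500 cells/well, 384-well) were cultured on plastic, on top of (2D) or embedded (3D) in Matrigel or human leiomyoma matrix Myogel (500 ug/mL; Myogel 3D mixed with rat collagen I). Cells were treated for 3 days with 5 ten-fold concentrations of each drug, and viability was read by CellTiter-Glo. Viability was normalised to DMSO and benzethonium chloride controls and fitted with the FIMM DSRT pipeline to give IC50 (nM), maximal % inhibition and DSS. Suffixes _1/_2/_3 are replicates. Only inhibition-mode (IC50) fits are kept.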

UT-SCC-81 = assay: as above
Protocol: as §1

UT-SCC-14 [1] = assay: as above
Protocol: as §1

UT-SCC-42A [2] = assay: as above
Protocol: as §1

UT-SCC-8 = assay: as above
Protocol: as §1

UT-SCC-106A [3] = assay: as above
Protocol: as §1

UT-SCC-42B [4] = assay: as above
Protocol: as §1

UT-SCC-24B = assay: as above
Protocol: as §1

UT-SCC-44 = assay: as above
Protocol: as §1

UT-SCC-73 = assay: as above
Protocol: as §1

UT-SCC-28 = assay: as above
Protocol: as §1

UT-SCC-24A [5] = assay: drug sensitivity score (DSS); higher = more sensitive
Protocol: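 HNSCC cell lines (500 cells/well, 384-well) were cultured on plastic, on top of (2D) or embedded (3D) in Matrigel or human leiomyoma matrix Myogel (500 ug/mL; Myogel 3D mixed with rat collagen I). Cells were treated for 3 days with 5 ten-fold concentrations of each drug, and viability was read by CellTiter-Glo. Suffixes _1/_2/_3 on drug names are replicates.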

UT-SCC-14 [6] = assay: drug sensitivity score (DSS); higher = more sensitive; extreme values may be limits of the assay
Outline: (§2)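 Using 384-well plates, 500 cells/well of HPV-negative HNSCC cell lines were grown on plastic, on 500 µg/mL Matrigel or Myogel coatings, or embedded in Matrigel or Myogel with rat collagen I. They were treated with compounds at five 10-fold concentrations for 3 days, and luminescence from CellTiter-Glo 2.0 was normalised to vehicle (0.1% DMSO) and cell-killing control wells. IC50, maximal inhibition and drug sensitivity score were derived from percent-inhibition dose–response curves in the FIMM pipeline.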

UT-SCC-42A [7] = assay: as above
Outline: as §2

UT-SCC-106A [8] = assay: as above
Outline: as §2

UT-SCC-42B [9] = assay: as above
Outline: as §2

UT-SCC-24A [10] = assay: relative IC50 (midpoint of the fitted curve; maximal inhibition may be below 50%); higher = less potent
Protocol: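 HNSCC cell lines (500 cells/well, 384-well) were cultured on plastic, on top of (2D) or embedded (3D) in Matrigel or human leiomyoma matrix Myogel (500 ug/mL; Myogel 3D mixed with rat collagen I). Cells were treated for 3 days with 5 ten-fold concentrations of each drug, and viability was read by CellTiter-Glo. Viability was normalised to DMSO (0% inhibition) and 100 uM benzethonium chloride (100% inhibition) controls and fitted with the FIMM DSRT pipeline to give IC50 (nM), maximal % inhibition and the drug sensitivity score (DSS). Suffixes _1/_2/_3 on drug names are replicates.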

[11] = culture condition: embedded in Matrigel
[12] = culture condition: embedded in Myogel + collagen I
[13] = culture condition: on top of Matrigel
[14] = culture condition: on top of Myogel
[15] = culture condition: plastic 2D (no matrix)

With CO[C@H]1C[C@@H]2CC[C@@H](C)[C@@](O)(O2)C(=O)C(=O)N2CCCC[C@H]2C(=O)O[C@H]([C@H](C)C[C@@H]2CC[C@@H](OP(C)(C)=O)[C@H](OC)C2)CC(=O)[C@H](C)/C=C(\C)[C@@H](O)[C@@H](OC)C(=O)[C@H](C)C[C@H](C)/C=C/C=C/C=C/1C [Ridaforolimus] the “maximal % inhibition of viability” value (UT-SCC-40; [11]) was 29.4 ± 6.9%, the “maximal % inhibition of viability” value (UT-SCC-40; [12]) was 39 ± 9.4% and the “maximal % inhibition of viability” value (UT-SCC-40; [13]) was 27 ± 5.7%. The “maximal % inhibition of viability” value (UT-SCC-40; [14]) was 27.4 ± 1.4%, the “maximal % inhibition of viability” value (UT-SCC-40; [15]) was 22.4 ± 1.4% and the “maximal % inhibition of viability” value (UT-SCC-81; [11]) was 50 ± 11%. For the same compound, the “maximal % inhibition of viability” value (UT-SCC-81; [12]) was 64 ± 9.1%, the “maximal % inhibition of viability” value (UT-SCC-81; [13]) was 43.9 ± 1.1% and the “maximal % inhibition of viability” value (UT-SCC-81; [14]) was 54.6 ± 4.2%. The “maximal % inhibition of viability” value (UT-SCC-81; [15]) was 48.4 ± 5.3%, the “maximal % inhibition of viability” value (UT-SCC-14 [1]; [11]) was 53.4 ± 6.2% and the “maximal % inhibition of viability” value (UT-SCC-14 [1]; [12]) was 57.5 ± 6.6%. The “maximal % inhibition of viability” value (UT-SCC-14 [1]; [13]) was 54.5 ± 9.4%, the “maximal % inhibition of viability” value (UT-SCC-14 [1]; [14]) was 48.6 ± 5.5% and the “maximal % inhibition of viability” value (UT-SCC-14 [1]; [15]) was 50.7 ± 12%. The “maximal % inhibition of viability” value (UT-SCC-42A [2]; [11]) was 29.5 ± 6.2%, the “maximal % inhibition of viability” value (UT-SCC-42A [2]; [12]) was 42.7 ± 5% and the “maximal % inhibition of viability” value (UT-SCC-42A [2]; [13]) was 33.3 ± 2.6%. For the same compound, the “maximal % inhibition of viability” value (UT-SCC-42A [2]; [14]) was 37.1 ± 6.1%, the “maximal % inhibition of viability” value (UT-SCC-42A [2]; [15]) was 35.8 ± 5% and the “maximal % inhibition of viability” value (UT-SCC-8; [11]) was 45 ± 7%. The “maximal % inhibition of viability” value (UT-SCC-8; [12]) was 33.2 ± 7.1%, the “maximal % inhibition of viability” value (UT-SCC-8; [13]) was 38.4 ± 1.7% and the “maximal % inhibition of viability” value (UT-SCC-8; [14]) was 49.2 ± 8.1%. The “maximal % inhibition of viability” value (UT-SCC-8; [15]) was 46.9 ± 5.1%, the “maximal % inhibition of viability” value (UT-SCC-106A [3]; [11]) was 35 ± 4.2% and the “maximal % inhibition of viability” value (UT-SCC-106A [3]; [12]) was 27.4 ± 2.9%. The “maximal % inhibition of viability” value (UT-SCC-106A [3]; [13]) was 34.5 ± 4%, the “maximal % inhibition of viability” value (UT-SCC-106A [3]; [14]) was 27.5 ± 2.6% and the “maximal % inhibition of viability” value (UT-SCC-106A [3]; [15]) was 41 ± 1.9%. For the same compound, the “maximal % inhibition of viability” value (UT-SCC-42B [4]; [11]) was 16.8 ± 7.8%, the “maximal % inhibition of viability” value (UT-SCC-42B [4]; [13]) was 14.9 ± 2.2% and the “maximal % inhibition of viability” value (UT-SCC-42B [4]; [14]) was 14.2 ± 3.1%. For the same compound, the “maximal % inhibition of viability” value (UT-SCC-42B [4]; [15]) was 14.5 ± 1.9%, the “maximal % inhibition of viability” value (UT-SCC-24B; [11]) was 21.4 ± 6.2% and the “maximal % inhibition of viability” value (UT-SCC-24B; [12]) was 38.1 ± 5.8%. For the same compound, the “maximal % inhibition of viability” value (UT-SCC-24B; [13]) was 26.7 ± 6.1%, the “maximal % inhibition of viability” value (UT-SCC-24B; [14]) was 31.1 ± 7.1% and the “maximal % inhibition of viability” value (UT-SCC-24B; [15]) was 27.4 ± 3.4%. For the same compound, the “maximal % inhibition of viability” value (UT-SCC-44; [11]) was 32.8 ± 14%, the “maximal % inhibition of viability” value (UT-SCC-44; [12]) was 44.1 ± 8.6% and the “maximal % inhibition of viability” value (UT-SCC-44; [13]) was 39.2 ± 2.1%. For the same compound, the “maximal % inhibition of viability” value (UT-SCC-44; [14]) was 36.9 ± 4.2%, the “maximal % inhibition of viability” value (UT-SCC-44; [15]) was 33.7 ± 6.2% and the “maximal % inhibition of viability” value (UT-SCC-73; [11]) was 38.7 ± 16%. The “maximal % inhibition of viability” value (UT-SCC-73; [12]) was 42.4 ± 11%, the “maximal % inhibition of viability” value (UT-SCC-73; [13]) was 30.6 ± 3.4% and the “maximal % inhibition of viability” value (UT-SCC-73; [14]) was 40.2 ± 1.8%. For the same compound, the “maximal % inhibition of viability” value (UT-SCC-73; [15]) was 31.5 ± 4.3%, the “maximal % inhibition of viability” value (UT-SCC-28; [11]) was 30.9 ± 9.3% and the “maximal % inhibition of viability” value (UT-SCC-28; [12]) was 31.5 ± 18%. The “maximal % inhibition of viability” value (UT-SCC-28; [13]) was 34.8 ± 4.5%, the “maximal % inhibition of viability” value (UT-SCC-28; [15]) was 33.4 ± 2.9% and the drug sensitivity score (UT-SCC-24A [5]; [11]) was 10.2 ± 10 DSS. It also gave a drug sensitivity score (UT-SCC-24A [5]; [12]) of 5.43 ± 0.71 DSS, a drug sensitivity score (UT-SCC-24A [5]; [13]) of 4.57 ± 1.2 DSS and a drug sensitivity score (UT-SCC-24A [5]; [14]) of 5.03 ± 1.4 DSS. The drug sensitivity score (UT-SCC-24A [5]; [15]) was 5.87 ± 0.67 DSS, the drug sensitivity score (UT-SCC-14 [6]; [11]) was 13.8 ± 3.1 DSS and the drug sensitivity score (UT-SCC-14 [6]; [12]) was 15.2 ± 1.2 DSS. The drug sensitivity score (UT-SCC-14 [6]; [13]) was 12.9 ± 1.5 DSS, the drug sensitivity score (UT-SCC-14 [6]; [14]) was 13 ± 2.4 DSS and the drug sensitivity score (UT-SCC-14 [6]; [15]) was 11.9 ± 2.8 DSS. For the same compound, the drug sensitivity score (UT-SCC-42A [7]; [11]) was 3.43 ± 0.55 DSS, the drug sensitivity score (UT-SCC-42A [7]; [12]) was 5.73 ± 1.1 DSS and the drug sensitivity score (UT-SCC-42A [7]; [13]) was 6.43 ± 1.4 DSS. The drug sensitivity score (UT-SCC-42A [7]; [14]) was 5.2 ± 1.3 DSS, the drug sensitivity score (UT-SCC-42A [7]; [15]) was 5.6 ± 2.1 DSS and the drug sensitivity score (UT-SCC-106A [8]; [11]) was 4.2 ± 1.4 DSS. The drug sensitivity score (UT-SCC-106A [8]; [12]) was 2.63 ± 0.21 DSS, the drug sensitivity score (UT-SCC-106A [8]; [13]) was 6.4 ± 3.5 DSS and the drug sensitivity score (UT-SCC-106A [8]; [14]) was 2.9 ± 1.1 DSS. For the same compound, the drug sensitivity score (UT-SCC-106A [8]; [15]) was 7.57 ± 1.7 DSS, the drug sensitivity score (UT-SCC-42B [9]; [11]) was 0.8 ± 0.76 DSS and the drug sensitivity score (UT-SCC-42B [9]; [13]) was 0.233 ± 0.4 DSS. The drug sensitivity score (UT-SCC-42B [9]; [14]) was 0.367 ± 0.4 DSS, the drug sensitivity score (UT-SCC-42B [9]; [15]) was 0.4 ± 0.36 DSS and the “relative IC50” value (UT-SCC-24A [10]; [12]) was 2.61 nM. The “relative IC50” value (UT-SCC-24A [10]; [14]) was 3.5 nM and the “relative IC50” value (UT-SCC-24A [10]; [15]) was 1.98 nM.
